Measured values reported in PubChem BioAssay AID248 (DTP/NCI, 2004).
Where “and” joins values, the source holds several entries; their conditions need not be identical. Identical values can stand only once. Toxic doses and inconclusive results are not listed. No stated cut-off is given here; in the data, active means T/C of 150% or more; inactive means T/C below 125%.

Tested on: L1210 leukemia ip in BDF1 mice, survival T/C
Test: NCI In Vivo Anticancer Drug Screen. Data for tumor model L1210 Leukemia (intraperitoneal) in B6D2F1 (BDF1) mice
Conditions: endpoint: mean survival time, higher = longer survival
Method in brief: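 Tumor cells were implanted, animals were treated, and survival was followed. The result divides the treated measurement by the vehicle-control measurement.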

[1] = dose: 100.0 mg/kg/injection, schedule: Q01DX001 (ip), vehicle: saline with Tween-80
[2] = dose: 200.0 mg/kg/injection, schedule: Q01DX001 (ip), vehicle: saline with Tween-80
[3] = dose: 400.0 mg/kg/injection, schedule: Q01DX001 (ip), vehicle: saline with Tween-80
[4] = dose: 100.0 mg/kg/injection, schedule: Q04DX003 (ip), vehicle: saline
[5] = dose: 25.0 mg/kg/injection, schedule: Q01DX009 (ip), vehicle: saline
[6] = dose: 50.0 mg/kg/injection, schedule: Q01DX009 (ip), vehicle: saline
[7] = dose: 100.0 mg/kg/injection, schedule: Q01DX009 (ip), vehicle: saline
[8] = dose: 100.0 mg/kg/injection, schedule: Q01DX009 (ip), vehicle: saline with Tween-80
[9] = dose: 200.0 mg/kg/injection, schedule: Q01DX009 (ip), vehicle: saline with Tween-80
[10] = dose: 400.0 mg/kg/injection, schedule: Q01DX009 (ip), vehicle: saline with Tween-80
[11] = dose: 400.0 mg/kg/injection, schedule: Q04DX002 (ip), vehicle: saline with Tween-80

Measured: T/C

COC(=O)c1ccc2c(c1)OCO2
inactive: [1] 100 % of control | dose: 100.0 mg/kg/injection, schedule: Q01DX009 (ip), vehicle: saline sonified 94 % of control | [2] 103 % of control | dose: 200.0 mg/kg/injection, schedule: Q01DX009 (ip), vehicle: saline sonified 100 % of control | [3] 95 % of control | dose: 400.0 mg/kg/injection, schedule: Q01DX009 (ip), vehicle: saline sonified 102 % of control

CCn1c(=O)oc2ccccc2c1=S
inactive: [4] 100 % of control | dose: 200.0 mg/kg/injection, schedule: Q04DX003 (ip), vehicle: saline 96 % of control

CCCCN(CCCC)CCCC#N
inactive: [5] 105 % of control | dose: 25.0 mg/kg/injection, schedule: Q04DX003 (ip), vehicle: saline 106 % of control | [6] 103 % of control | dose: 50.0 mg/kg/injection, schedule: Q04DX003 (ip), vehicle: saline 100 % of control | [7] 100 % of control | [4] 103 % of control and 105 % of control

COc1ccccc1-n1c(O)c(N=Nc2ccccc2C)c(=O)n(-c2ccc(Cl)cc2)c1=S
inactive: dose: 100.0 mg/kg/injection, schedule: Q01DX001 (ip), vehicle: Klucel (hydroxypropylcellulose) (HPC) 95 % of control | dose: 200.0 mg/kg/injection, schedule: Q01DX001 (ip), vehicle: Klucel (hydroxypropylcellulose) (HPC) 96 % of control | dose: 400.0 mg/kg/injection, schedule: Q01DX001 (ip), vehicle: Klucel (hydroxypropylcellulose) (HPC) 98 % of control

O=C(COC(=O)c1ccccc1Br)c1ccc(-c2ccccc2)cc1
inactive: dose: 100.0 mg/kg/injection, schedule: Q01DX001 (ip), vehicle: saline 94 % of control | dose: 200.0 mg/kg/injection, schedule: Q01DX001 (ip), vehicle: saline 100 % of control | dose: 400.0 mg/kg/injection, schedule: Q01DX001 (ip), vehicle: saline 91 % of control

C=CC(OC(C)=O)OC(C)=O
inactive: dose: 2.8 mg/kg/injection, schedule: Q01DX Z (ip), vehicle: carboxymethylcellulose (CMC) 94 % of control | dose: 4.2 mg/kg/injection, schedule: Q01DX Z (ip), vehicle: carboxymethylcellulose (CMC) 95 % of control | dose: 6.2 mg/kg/injection, schedule: Q01DX Z (ip), vehicle: carboxymethylcellulose (CMC) 93 % of control | dose: 6.25 mg/kg/injection, schedule: Q01DX009 (ip), vehicle: saline with Tween-80 91 % of control | dose: 6.25 mg/kg/injection, schedule: Q01DX Z (ip), vehicle: carboxymethylcellulose (CMC) 89 % of control | dose: 9.4 mg/kg/injection, schedule: Q01DX Z (ip), vehicle: carboxymethylcellulose (CMC) 98 % of control and 111 % of control | dose: 12.5 mg/kg/injection, schedule: Q01DX009 (ip), vehicle: saline with Tween-80 104 % of control | dose: 12.5 mg/kg/injection, schedule: Q04DX003 (ip), vehicle: saline with Tween-80 103 % of control | dose: 25.0 mg/kg/injection, schedule: Q01DX009 (ip), vehicle: saline with Tween-80 110 % of control | dose: 25.0 mg/kg/injection, schedule: Q04DX003 (ip), vehicle: saline with Tween-80 111 % of control

Nc1ccc(C(=O)N/N=C/c2ccccc2[N+](=O)[O-])cc1
inactive: dose: 12.5 mg/kg/injection, schedule: Q01DX009 (ip), vehicle: other 91 % of control | dose: 25.0 mg/kg/injection, schedule: Q01DX009 (ip), vehicle: other 93 % of control

CN=C(NN(C)C)c1ccc(NC(=O)c2ccc(C(=O)Nc3ccc(C(=NC)NN(C)C)cc3)cc2)cc1
inactive: dose: 2.5 mg/kg/injection, schedule: Q01DX Z (ip), vehicle: carboxymethylcellulose (CMC) 97 % of control | dose: 5.0 mg/kg/injection, schedule: Q01DX Z (ip), vehicle: carboxymethylcellulose (CMC) 111 % of control | dose: 25.0 mg/kg/injection, schedule: Q01DX Z (oral), vehicle: carboxymethylcellulose (CMC) 116 % of control | dose: 50.0 mg/kg/injection, schedule: Q01DX Z (oral), vehicle: carboxymethylcellulose (CMC) 110 % of control | dose: 100.0 mg/kg/injection, schedule: Q01DX Z (oral), vehicle: carboxymethylcellulose (CMC) 102 % of control | dose: 200.0 mg/kg/injection, schedule: Q01DX Z (oral), vehicle: carboxymethylcellulose (CMC) 104 % of control

COC(CBr)c1ccccc1 (stereo not given)
inactive: dose: 12.5 mg/kg/injection, schedule: Q04DX003 (ip), vehicle: Klucel (hydroxypropylcellulose) (HPC) 98 % of control | [5] 108 % of control | dose: 25.0 mg/kg/injection, schedule: Q04DX003 (ip), vehicle: Klucel (hydroxypropylcellulose) (HPC) 101 % of control | [6] 98 % of control | dose: 50.0 mg/kg/injection, schedule: Q04DX003 (ip), vehicle: Klucel (hydroxypropylcellulose) (HPC) 96 % of control | [7] 95 % of control

CCNC(=O)Oc1ccc(S(=O)(=O)F)cc1Cl
inactive: dose: 25.0 mg/kg/injection, schedule: Q01DX001 (ip), vehicle: carboxymethylcellulose (CMC) 91 % of control | dose: 50.0 mg/kg/injection, schedule: Q01DX001 (ip), vehicle: carboxymethylcellulose (CMC) 107 % of control | dose: 100.0 mg/kg/injection, schedule: Q01DX001 (ip), vehicle: carboxymethylcellulose (CMC) 98 % of control and 100 % of control

Cc1ccc(NC(=O)Nc2ccccc2C(F)(F)F)cc1NC(=O)Nc1ccccc1C(F)(F)F
inactive: [8] 92 % of control | [9] 90 % of control | [10] 92 % of control

CCCCCCCCCCCC(=O)NC(=S)NCc1cccnc1
inactive: [1] 92 % of control | [8] 101 % of control and 105 % of control | dose: 100.0 mg/kg/injection, schedule: Q04DX002 (ip), vehicle: saline with Tween-80 98 % of control and 100 % of control | [2] 93 % of control | [9] 99 % of control and 107 % of control | dose: 200.0 mg/kg/injection, schedule: Q04DX002 (ip), vehicle: saline with Tween-80 108 % of control and 112 % of control | [3] 98 % of control | [10] 96 % of control and 108 % of control | [11] 105 % of control

COC(=O)c1cccc2ccc3ccccc3c12
inactive: dose: 75.0 mg/kg/injection, schedule: Q04DX003 (ip), vehicle: saline 97 % of control | dose: 150.0 mg/kg/injection, schedule: Q04DX003 (ip), vehicle: saline 103 % of control | dose: 300.0 mg/kg/injection, schedule: Q04DX003 (ip), vehicle: saline 94 % of control

O=c1ccc2c(COc3ccc(Cl)cc3Cl)c3ccc(O)cc3oc-2c1
inactive: dose: 100.0 mg/kg/injection, schedule: Q04DX003 (ip), vehicle: Klucel (hydroxypropylcellulose) (HPC) 99 % of control | dose: 200.0 mg/kg/injection, schedule: Q04DX003 (ip), vehicle: Klucel (hydroxypropylcellulose) (HPC) 99 % of control

CCOC(=O)C1C(=O)C=C(C)C(C(=O)OCC)C1c1ccc(N(C)C)cc1 (stereo not given)
inactive: dose: 25.6 mg/kg/injection, schedule: Q04DX002 (ip), vehicle: saline with Tween-80 92 % of control | dose: 64.0 mg/kg/injection, schedule: Q04DX002 (ip), vehicle: saline with Tween-80 96 % of control | dose: 160.0 mg/kg/injection, schedule: Q04DX002 (ip), vehicle: saline with Tween-80 92 % of control | [11] 103 % of control

CC(C)=NNCCO
inactive: dose: 12.5 mg/kg/injection, schedule: Q01DX001 (ip), vehicle: saline 103 % of control | dose: 25.0 mg/kg/injection, schedule: Q01DX001 (ip), vehicle: saline 103 % of control | dose: 50.0 mg/kg/injection, schedule: Q01DX001 (ip), vehicle: saline 100 % of control

N=C(N)N=Nc1c(O)[nH]c2ccccc12
inactive: dose: 15.0 mg/kg/injection, schedule: Q01DX Z (ip), vehicle: saline 103 % of control | dose: 30.0 mg/kg/injection, schedule: Q01DX Z (ip), vehicle: saline 100 % of control | dose: 37.5 mg/kg/injection, schedule: Q01DX Z (oral), vehicle: carboxymethylcellulose (CMC) 102 % of control | dose: 60.0 mg/kg/injection, schedule: Q01DX Z (ip), vehicle: saline 94 % of control | dose: 75.0 mg/kg/injection, schedule: Q01DX Z (oral), vehicle: carboxymethylcellulose (CMC) 98 % of control | dose: 120.0 mg/kg/injection, schedule: Q01DX Z (ip), vehicle: saline 90 % of control | dose: 120.0 mg/kg/injection, schedule: Q01DX Z (oral), vehicle: other 95 % of control | dose: 150.0 mg/kg/injection, schedule: Q01DX Z (oral), vehicle: carboxymethylcellulose (CMC) 105 % of control | dose: 240.0 mg/kg/injection, schedule: Q01DX Z (oral), vehicle: other 98 % of control
